Literature values as cited in patent US7300682B2, “Method of preparation and use of coconut water in mamalian tissue nourishment growth and healthy maintenance” (Sabinsa Corporation, priority 2000, dated 2007).

Tested on: Abelmoschus esculetus L and Solanum gilo L
Details: 100 mg/L

C=C1C[C@]23C[C@@]1(O)CC[C@H]2[C@@]12C=C[C@H](O)[C@@](C)(C(=O)O1)[C@H]2[C@@H]3C(=O)O [GA3, gibberelic acid]
effect on plant height, yield, chlorophyll and vitamin contents: significantly effective
